Experimental findings from patent publication US7449447B2, “Peptidomimetic NS3-serine protease inhibitors of hepatitis C virus” (priority 2003, dated 2008) are described below.

Some results are limits rather than exact numbers.

In one assay the target is T1, HCV NS3/NS4a serine protease (Hepatitis C virus genotype 1b, UniProt P26663).
T1 construct: amino terminus of the NS3 protease domain (amino acids 3-181) with a tetrapeptide linker; made in house; host or cells: E. coli
T1 sequence (P26663 1013-1207, looked up, natural form): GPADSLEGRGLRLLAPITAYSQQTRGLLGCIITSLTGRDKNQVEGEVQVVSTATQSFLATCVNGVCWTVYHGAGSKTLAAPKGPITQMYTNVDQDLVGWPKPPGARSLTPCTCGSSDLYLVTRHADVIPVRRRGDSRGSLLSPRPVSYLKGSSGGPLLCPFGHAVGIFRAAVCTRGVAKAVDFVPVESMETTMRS
The assay is described as follows: Spectrophotometric assay for HCV protease inhibitory activity (chromogenic ester substrates). To be noted: Ki Rating, Table 2; single chain NS4A21-32-GSGS-NS3 3-181 protease, 30° C., pH 6.5. In kind it is biochemical, hepatitis C virus (strain 1b). A digest of the protocol:
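Single-chain NS4A(21-32)-GSGS-NS3(3-181) protease (genotype 1b) from E. coli was used at 1.3 nM in 25 mM MOPS pH 6.5 with 300 mM NaCl, 30 °C and 4% DMSO. Chromogenic ester substrate cleavage was followed as PAP release at 370 nm over 60 min. Ki was derived from vo/vi versus [I] plots assuming competitive inhibition.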
By Ki is commonly meant a dissociation constant, usually derived from enzyme kinetics or from competition with a known ligand. For the compound `COC(=O)c1ccc(CCNC(=O)C(CC(F)F)NC(=O)[C@@H]2[C@@H]3[C@H](CN2C(=O)[C@@H](NC(=O)N[C@H](C(=O)OC(C)(C)C)C(C)C)C(C)(C)C)C3(C)C)cc1` (some centres unmarked) [Example 138], the Ki lay in the range of 100 to 500 nM.

Take `COC(=O)c1ccc(CCNC(=O)C(CC(F)F)NC(=O)[C@@H]2[C@@H]3[C@H](CN2C(=O)[C@@H](NC(=O)N[C@H](C(=O)OC(C)(C)C)C(C)C)C(C)(C)C)C3(C)C)cc1` (some centres unmarked) [Example 149]: the Ki is more than 500 nM. Still for that read-out and setting: the result for `CC(C)[C@H](NC(=O)N[C@H](C(=O)N1C[C@H]2[C@@H]([C@H]1C(=O)NC(CC(F)F)C(=O)NCCc1ccccc1)C2(C)C)C(C)(C)C)C(=O)O` (some centres unmarked) [Example 136] reads 100 to 500 nM. The same measure, in the same setting: for `CC(C)[C@H](NC(=O)N[C@H](C(=O)N1C[C@H]2[C@@H]([C@H]1C(=O)NC(CC(F)F)C(=O)NCCc1ccccc1)C2(C)C)C(C)(C)C)C(=O)OC(C)(C)C` (some centres unmarked) [Example 140] the value was 100 to 500 nM; for `CN(C[C@@H](NC(=O)N[C@H](C(=O)N1C[C@H]2[C@@H]([C@H]1C(=O)NC(CC(F)F)C(=O)NCCc1ccc(C(N)=O)cc1)C2(C)C)C(C)(C)C)C(C)(C)C)S(C)(=O)=O` (some centres unmarked) [Example 128], 100 to 500 nM.

Consider `CC(C)[C@H](NC(=O)N[C@H](C(=O)N1C[C@H]2[C@@H]([C@H]1C(=O)NC(CC(F)F)C(=O)O)C2(C)C)C(C)(C)C)C(=O)OC(C)(C)C` (some centres unmarked) [Example 159], for which the Ki is more than 500 nM. As to `COC(=O)c1ccc(CCNC(=O)[C@H](CC(F)F)NC(=O)[C@@H]2[C@@H]3[C@H](CN2C(=O)[C@@H](NC(=O)N[C@H](CNS(=O)(=O)c2ccccc2)C(C)C)C(C)(C)C)C3(C)C)cc1` [Example 130], the Ki was 100 to 500 nM. Same read-out and setting: for `CCOC(=O)CCNC(=O)[C@H](CC(F)F)NC(=O)[C@@H]1[C@@H]2[C@H](CN1C(=O)[C@@H](NC(=O)OC(C)(C)C)C(C)(C)C)C2(C)C` [Example 163] the value was more than 500 nM; for `COC(=O)c1ccc(CCNC(=O)[C@H](CC(F)F)NC(=O)[C@@H]2[C@H]3CC(C)(C)O[C@H]3CN2C(=O)[C@@H](NC(=O)OCc2ccccc2)C2CCCCC2)cc1` [Example 173], more than 500 nM.

The assay is the same for the next values; noted with them: Ki, Table 1; single chain NS4A21-32-GSGS-NS3 3-181 protease, 30° C., pH 6.5.
As for `CC(C)(C)[C@H](NC(=O)NC1(CS(C)(=O)=O)CCCCC1)C(=O)N1C[C@H]2[C@@H](C1C(=O)N[C@@H](CC(F)F)C(=O)NCCc1ccc(C(=O)O)cc1)C2(C)C` (some centres unmarked) [Example 107], the Ki turned out to be 29 nM.

Still in this assay, the particulars now being: Ki, Table 3; rating; single chain NS4A21-32-GSGS-NS3 3-181 protease, 30° C., pH 6.5.
On to `CN(C[C@@H](NC(=O)N[C@H](C(=O)N1C[C@H]2[C@@H]([C@H]1C(=O)N[C@@H](CC(F)F)C(=O)NCCc1cccc(C(F)(F)F)c1)C2(C)C)C(C)(C)C)C(C)(C)C)S(C)(=O)=O` [Example 282], for which the Ki is less than 100 nM. On the same count and under the same terms, for `CN(C[C@@H](NC(=O)N[C@H](C(=O)N1C[C@H]2[C@@H]([C@H]1C(=O)N[C@@H](CC(F)F)C(=O)NCCC(c1ccccc1)c1ccccc1)C2(C)C)C(C)(C)C)C(C)(C)C)S(C)(=O)=O` [Example 229] the value was more than 500 nM. For `CN(C[C@@H](NC(=O)N[C@H](C(=O)N1C[C@H]2[C@@H]([C@H]1C(=O)N[C@@H](CC(F)F)C(=O)NCCc1ccccc1)C2(C)C)C(C)(C)C)C(C)(C)C)S(C)(=O)=O` [Example 258], the Ki is less than 100 nM.

On to `CC(Cc1ccc(Cl)cc1)NC(=O)[C@H](CC(F)F)NC(=O)[C@@H]1[C@@H]2[C@H](CN1C(=O)[C@@H](NC(=O)N[C@H](CN(C)S(C)(=O)=O)C(C)(C)C)C(C)(C)C)C2(C)C` (some centres unmarked) [Example 296], for which the Ki lay in the range of 100 to 500 nM. Same read-out and setting: for `CN(C[C@@H](NC(=O)N[C@H](C(=O)N1C[C@H]2[C@@H]([C@H]1C(=O)N[C@@H](CC(F)F)C(=O)N[C@@H]1c3ccccc3C[C@@H]1O)C2(C)C)C(C)(C)C)C(C)(C)C)S(C)(=O)=O` [Example 247] the value was more than 500 nM; for `CN(C[C@@H](NC(=O)N[C@H](C(=O)N1C[C@H]2[C@@H]([C@H]1C(=O)N[C@@H](CC(F)F)C(=O)NCC1CCCCC1)C2(C)C)C(C)(C)C)C(C)(C)C)S(C)(=O)=O` [Example 213], more than 500 nM; for `CC(C)OCCCNC(=O)[C@H](CC(F)F)NC(=O)[C@@H]1[C@@H]2[C@H](CN1C(=O)[C@@H](NC(=O)N[C@H](CN(C)S(C)(=O)=O)C(C)(C)C)C(C)(C)C)C2(C)C` [Example 214], more than 500 nM.

`CN(C[C@@H](NC(=O)N[C@H](C(=O)N1C[C@H]2[C@@H]([C@H]1C(=O)N[C@@H](CC(F)F)C(=O)NCCc1ccccc1Cl)C2(C)C)C(C)(C)C)C(C)(C)C)S(C)(=O)=O` [Example 251]: the Ki was less than 100 nM. For `CN(C[C@@H](NC(=O)N[C@H](C(=O)N1C[C@H]2[C@@H]([C@H]1C(=O)N[C@@H](CC(F)F)C(=O)NCCc1c[nH]c3ccccc13)C2(C)C)C(C)(C)C)C(C)(C)C)S(C)(=O)=O` [Example 252], the inhibitory constant (Ki) was less than 100 nM. As for `CN(C[C@@H](NC(=O)N[C@H](C(=O)N1C[C@H]2[C@@H]([C@H]1C(=O)N[C@@H](CC(F)F)C(=O)N[C@@H]1C[C@@H]1c1ccccc1)C2(C)C)C(C)(C)C)C(C)(C)C)S(C)(=O)=O` [Example 308], the Ki is less than 100 nM. On the same count and under the same terms, for `CN(C[C@@H](NC(=O)N[C@H](C(=O)N1C[C@H]2[C@@H]([C@H]1C(=O)N[C@@H](CC(F)F)C(=O)NCCc1ccccc1Br)C2(C)C)C(C)(C)C)C(C)(C)C)S(C)(=O)=O` [Example 289] the value was less than 100 nM.

As to `CN(C[C@@H](NC(=O)N[C@H](C(=O)N1C[C@H]2[C@@H]([C@H]1C(=O)N[C@@H](CC(F)F)C(=O)NCCc1c(F)cccc1F)C2(C)C)C(C)(C)C)C(C)(C)C)S(C)(=O)=O` [Example 306], the Ki was less than 100 nM. With `CCOc1ccccc1CCNC(=O)[C@H](CC(F)F)NC(=O)[C@@H]1[C@@H]2[C@H](CN1C(=O)[C@@H](NC(=O)N[C@H](CN(C)S(C)(=O)=O)C(C)(C)C)C(C)(C)C)C2(C)C` [Example 273], the Ki is less than 100 nM. Consider `COc1ccc(Br)cc1CCNC(=O)[C@H](CC(F)F)NC(=O)[C@@H]1[C@@H]2[C@H](CN1C(=O)[C@@H](NC(=O)N[C@H](CN(C)S(C)(=O)=O)C(C)(C)C)C(C)(C)C)C2(C)C` [Example 300], for which the inhibitory constant (Ki) was less than 100 nM.

Consider `CC(O)CNC(=O)[C@H](CC(F)F)NC(=O)[C@@H]1[C@@H]2[C@H](CN1C(=O)[C@@H](NC(=O)N[C@H](CN(C)S(C)(=O)=O)C(C)(C)C)C(C)(C)C)C2(C)C` (some centres unmarked) [Example 231], for which the Ki was more than 500 nM.

Consider `CN(C[C@@H](NC(=O)N[C@H](C(=O)N1C[C@H]2[C@@H]([C@H]1C(=O)N[C@@H](CC(F)F)C(=O)NCC(C)(C)C)C2(C)C)C(C)(C)C)C(C)(C)C)S(C)(=O)=O` [Example 209], for which the Ki is more than 500 nM.

Regarding `CN(C[C@@H](NC(=O)N[C@H](C(=O)N1C[C@H]2[C@@H]([C@H]1C(=O)N[C@@H](CC(F)F)C(=O)NCCc1ccc(Oc3ccccc3)cc1)C2(C)C)C(C)(C)C)C(C)(C)C)S(C)(=O)=O` [Example 291], the Ki is less than 100 nM. Still for that read-out and setting: for `CCOc1ccc(CCNC(=O)[C@H](CC(F)F)NC(=O)[C@@H]2[C@@H]3[C@H](CN2C(=O)[C@@H](NC(=O)N[C@H](CN(C)S(C)(=O)=O)C(C)(C)C)C(C)(C)C)C3(C)C)cc1OC` [Example 287] the value was less than 100 nM. Same read-out and setting: the result for `CC(NC(=O)[C@H](CC(F)F)NC(=O)[C@@H]1[C@@H]2[C@H](CN1C(=O)[C@@H](NC(=O)N[C@H](CN(C)S(C)(=O)=O)C(C)(C)C)C(C)(C)C)C2(C)C)c1ccc(Cl)cc1` (some centres unmarked) [Example 226] reads more than 500 nM.

Take `CN(C)CC(C)(C)CNC(=O)[C@H](CC(F)F)NC(=O)[C@@H]1[C@@H]2[C@H](CN1C(=O)[C@@H](NC(=O)N[C@H](CN(C)S(C)(=O)=O)C(C)(C)C)C(C)(C)C)C2(C)C` [Example 241]: the Ki is more than 500 nM. On the same count and under the same terms, the result for `CN(C[C@@H](NC(=O)N[C@H](C(=O)N1C[C@H]2[C@@H]([C@H]1C(=O)N[C@@H](CC(F)F)C(=O)N[C@H]1CCCC[C@@H]1OCc1ccccc1)C2(C)C)C(C)(C)C)C(C)(C)C)S(C)(=O)=O` [Example 255] reads more than 500 nM; that for `CN(C[C@@H](NC(=O)N[C@H](C(=O)N1C[C@H]2[C@@H]([C@H]1C(=O)N[C@@H](CC(F)F)C(=O)NCC1CC1)C2(C)C)C(C)(C)C)C(C)(C)C)S(C)(=O)=O` [Example 205], more than 500 nM.
